The source of these data is patent US11759455B2, “Substituted 1H-imidazo[4,5-b]pyridin-2(3H)-ones and their use as GLUN2B receptor modulators” (JANSSEN PHARMACEUTICA NV, priority 2016, dated 2023).

Molecules are shown by their SMILES. Like-named read-outs stand apart in the source and are kept apart here. A value given as a limit tells only on which side of the number the result lay.

The target in this test is T1, human GluN1/GluN2B NMDA receptors (Homo sapiens, UniProt Q13224).
T1 construct: expressed in transfected cells
T1 sequence (Q13224 27-1484, other chains not shown): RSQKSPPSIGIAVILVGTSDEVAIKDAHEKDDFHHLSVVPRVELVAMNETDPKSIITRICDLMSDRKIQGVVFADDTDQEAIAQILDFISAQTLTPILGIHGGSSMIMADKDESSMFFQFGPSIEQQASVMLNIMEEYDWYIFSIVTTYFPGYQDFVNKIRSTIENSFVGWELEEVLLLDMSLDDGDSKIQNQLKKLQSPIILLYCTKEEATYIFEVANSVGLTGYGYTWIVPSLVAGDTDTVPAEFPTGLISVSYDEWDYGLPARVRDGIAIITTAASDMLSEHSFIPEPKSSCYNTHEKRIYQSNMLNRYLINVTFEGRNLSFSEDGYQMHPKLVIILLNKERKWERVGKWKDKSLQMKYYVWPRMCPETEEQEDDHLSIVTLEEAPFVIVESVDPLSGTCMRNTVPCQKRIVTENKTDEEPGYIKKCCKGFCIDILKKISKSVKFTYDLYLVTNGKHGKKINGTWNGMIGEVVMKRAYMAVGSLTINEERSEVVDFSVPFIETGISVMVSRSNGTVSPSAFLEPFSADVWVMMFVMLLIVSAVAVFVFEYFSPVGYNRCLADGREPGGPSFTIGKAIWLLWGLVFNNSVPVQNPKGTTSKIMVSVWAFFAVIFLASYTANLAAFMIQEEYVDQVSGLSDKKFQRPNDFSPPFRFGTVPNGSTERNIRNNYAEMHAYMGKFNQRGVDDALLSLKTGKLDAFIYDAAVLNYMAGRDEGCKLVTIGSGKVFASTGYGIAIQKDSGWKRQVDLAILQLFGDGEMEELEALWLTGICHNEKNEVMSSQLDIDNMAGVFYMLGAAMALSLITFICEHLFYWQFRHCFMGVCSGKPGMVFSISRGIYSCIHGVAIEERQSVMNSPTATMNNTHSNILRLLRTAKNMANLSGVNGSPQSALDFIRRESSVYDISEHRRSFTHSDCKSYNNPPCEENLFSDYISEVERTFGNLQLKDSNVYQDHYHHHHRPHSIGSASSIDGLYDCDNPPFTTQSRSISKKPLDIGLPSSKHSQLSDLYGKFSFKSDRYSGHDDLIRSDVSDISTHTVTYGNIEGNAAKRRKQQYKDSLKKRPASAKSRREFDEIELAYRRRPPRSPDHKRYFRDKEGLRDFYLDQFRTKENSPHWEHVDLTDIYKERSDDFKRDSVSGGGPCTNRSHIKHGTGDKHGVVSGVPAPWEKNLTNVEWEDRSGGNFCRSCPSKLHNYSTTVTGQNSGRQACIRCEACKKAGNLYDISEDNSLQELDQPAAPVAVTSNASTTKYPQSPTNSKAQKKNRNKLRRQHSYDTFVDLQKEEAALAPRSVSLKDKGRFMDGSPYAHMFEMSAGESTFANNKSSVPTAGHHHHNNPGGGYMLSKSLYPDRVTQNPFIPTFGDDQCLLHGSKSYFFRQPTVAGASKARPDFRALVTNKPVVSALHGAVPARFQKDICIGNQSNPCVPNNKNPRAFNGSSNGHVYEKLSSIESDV
The test can be described thus: Cell-based calcium flux (FLIPR) assay on cloned human NR1/NR2B ion channels expressed in mammalian cells (standard and HTS buffer variants).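 Note: stable Tet-On inducible cell line, Ca2+ influx triggered by glutamate at about EC40 plus 10 µM glycine, fluorescent dye read-out over 5 min, normalized to control wells.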 A general note: A change in cytosolic calcium serves as a functional read-out for many receptors and channels.

The mark [1] stands for this setting: standard assay buffer (0.5 mM MgCl2 in dye loading buffer; 137 mM NaCl, 4 mM KCl in assay buffer), human GluN1/GluN2B, read-out: NR2B IC50 (μM) standard assay.
[2] abbreviates: HTS assay buffer (1.5 mM MgCl2 in dye loading buffer; 150 mM NaCl, 3 mM KCl in assay buffer), human GluN1/GluN2B, read-out: NR2B IC50 (μM) HTS assay.
[3] abbreviates: standard assay buffer (0.5 mM MgCl2 dye loading; 137 mM NaCl, 4 mM KCl assay buffer), human GluN1/GluN2B cells, read-out: NR2B IC50 (μM) standard assay.

In general, IC50 refers to the midpoint of a concentration-inhibition curve.

With `Cn1c(=O)n(Cc2cncc(F)c2)c2cc(-c3ccc(F)c(F)c3F)cnc21` [Example 347, 1-[(5-Fluoro-3-pyridyl)methyl]-3-methyl-6-(2,3,4-trifluorophenyl)imidazo[4,5-b]pyridin-2-one], the IC50 under setting [1] was 0.621 µM.
As to `N#Cc1cccc(-c2cnc3[nH]c(=O)n(Cc4ccccc4C#N)c3c2)c1` [Example 486, 2-[[6-(3-Cyanophenyl)-2-oxo-3H-imidazo[4,5-b]pyridin-1-yl]methyl]benzonitrile], under setting [2], the IC50 was 3.84 µM.
`CN(C)C(=O)Cn1c(=O)n(C)c2ncc(-c3ccc(F)s3)cc21` [Example 82, 2-[6-(5-Fluoro-2-thienyl)-3-methyl-2-oxo-imidazo[4,5-b]pyridin-1-yl]-N,N-dimethyl-acetamide]: under setting [3], the IC50 was 0.154 µM.
Regarding `Cn1c(=O)n(Cc2cncc(Cl)c2)c2cc(-c3cccc(C(F)(F)F)c3)cnc21` [Example 366, 1-[(5-Chloro-3-pyridyl)methyl]-3-methyl-6-[3-(trifluoromethyl)phenyl]imidazo[4,5-b]pyridin-2-one], under setting [1], the IC50 came to 0.433 µM.
As for `Cc1cc(-c2cnc3[nH]c(=O)n(Cc4cnccc4C)c3c2)ccc1F` [Example 277, 6-(4-Fluoro-3-methyl-phenyl)-1-[(4-methyl-3-pyridyl)methyl]-3H-imidazo[4,5-b]pyridin-2-one], the half-inhibitory concentration (IC50) under setting [3] was 0.077 µM.
Take `Cc1c(F)ccc(-c2cnc3c(c2)n(Cc2ccncn2)c(=O)n3C)c1F` [Example 72, 6-(2,4-Difluoro-3-methyl-phenyl)-3-methyl-1-(pyrimidin-4-ylmethyl)imidazo[4,5-b]pyridin-2-one]: the IC50 under setting [3] was 0.482 µM.
Consider `Cn1cc(Cn2c(=O)n(C)c3ncc(-c4ccc(C(F)F)s4)cc32)nn1` [Example 559, 6-[5-(Difluoromethyl)-2-thienyl]-3-methyl-1-[(1-methyltriazol-4-yl)methyl]imidazo[4,5-b]pyridin-2-one], for which the IC50 under setting [1] turned out to be 0.28 µM.
On to `Cn1c(=O)n(Cc2cccnn2)c2cc(-c3cccc(Cl)c3)cnc21` [Example 376, 6-(3-Chlorophenyl)-3-methyl-1-(pyridazin-3-ylmethyl)imidazo[4,5-b]pyridin-2-one], for which the IC50 under setting [1] amounted to 0.056 µM.
Consider `O=c1[nH]c2ncc(-c3ccccc3)cc2n1CCN1CCCC1` [Example 180, 6-Phenyl-1-(2-pyrrolidin-1-ylethyl)-3H-imidazo[4,5-b]pyridin-2-one], for which the IC50 under setting [3] stood at 0.539 µM.
`Cn1c(=O)n(CC(=O)N2CCC2)c2cc(-c3ccc(F)c(OC(F)F)c3)cnc21` [Example 588, 1-[2-(Azetidin-1-yl)-2-oxo-ethyl]-6-[3-(difluoromethoxy)-4-fluoro-phenyl]-3-methyl-imidazo[4,5-b]pyridin-2-one]: the half-inhibitory concentration (IC50) under setting [1] worked out at 0.023 µM.
For `O=c1[nH]c2ncc(-c3cccc(C(F)(F)F)c3)cc2n1CCN1CC(O)C1` [Example 147, 1-[2-(3-Hydroxyazetidin-1-yl)ethyl]-6-[3-(trifluoromethyl)phenyl]-3H-imidazo[4,5-b]pyridin-2-one], under setting [3], the concentration for half-maximal inhibition (IC50) is 0.365 µM.
Take `CN(C)C(=O)Cn1c(=O)n(C)c2ncc(-c3csc(C(F)(F)F)n3)cc21` [Example 108, N,N-Dimethyl-2-[3-methyl-2-oxo-6-[2-(trifluoromethyl)thiazol-4-yl]imidazo[4,5-b]pyridin-1-yl]acetamide]: the IC50 under setting [3] was found to be 0.047 µM.
With `Cc1cccnc1Cn1c(=O)[nH]c2ncc(-c3ccc(F)c(F)c3)cc21` [Example 284, 6-(3,4-Difluorophenyl)-1-[(3-methyl-2-pyridyl)methyl]-3H-imidazo[4,5-b]pyridin-2-one], the IC50 under setting [3] was above 10 µM.
Regarding `COc1cccc(Cn2c(=O)[nH]c3ncc(-c4ccc(F)cc4OC)cc32)c1` [Example 505, 6-(4-Fluoro-2-methoxy-phenyl)-1-[(3-methoxyphenyl)methyl]-3H-imidazo[4,5-b]pyridin-2-one], the IC50 under setting [1] stood at 1.64 µM.
As for `Cn1c(=O)n(CC(=O)N2CCC2)c2cc(-c3csc(C(F)(F)F)n3)cnc21` [Example 107, 1-[2-(Azetidin-1-yl)-2-oxo-ethyl]-3-methyl-6-[2-(trifluoromethyl)thiazol-4-yl]imidazo[4,5-b]pyridin-2-one], the IC50 under setting [3] worked out at 0.087 µM.
For the compound `Cc1cc(F)ccc1-c1cnc2[nH]c(=O)n(CCN3CCCC3)c2c1` [Example 177, 6-(4-Fluoro-2-methyl-phenyl)-1-(2-pyrrolidin-1-ylethyl)-3H-imidazo[4,5-b]pyridin-2-one], the IC50 under setting [3] came to 0.502 µM.
Regarding `COc1ccc(Cn2c(=O)[nH]c3ncc(-c4cc(F)cc(F)c4)cc32)cc1` [Example 508, 6-(3,5-Difluorophenyl)-1-[(4-methoxyphenyl)methyl]-3H-imidazo[4,5-b]pyridin-2-one], the IC50 under setting [2] was found to be 0.463 µM.
As for `Cc1cc(-c2cnc3[nH]c(=O)n(Cc4ccn(C)n4)c3c2)ccc1F` [Example 129, 6-(4-Fluoro-3-methyl-phenyl)-1-[(1-methylpyrazol-3-yl)methyl]-3H-imidazo[4,5-b]pyridin-2-one], the IC50 under setting [3] amounted to 0.394 µM.
In the case of `CN(CCF)C(=O)Cn1c(=O)n(C)c2ncc(-c3ccc(C(F)(F)F)s3)cc21` [Example 577, N-(2-Fluoroethyl)-N-methyl-2-[3-methyl-2-oxo-6-[5-(trifluoromethyl)-2-thienyl]imidazo[4,5-b]pyridin-1-yl]acetamide], the IC50 under setting [1] came to 0.064 µM.
In the case of `COc1cccc(-c2cnc3[nH]c(=O)n(Cc4ccc(F)cc4)c3c2)c1OC` [Example 493, 6-(2,3-Dimethoxyphenyl)-1-[(4-fluorophenyl)methyl]-3H-imidazo[4,5-b]pyridin-2-one], the IC50 under setting [2] was found to be 1.01 µM.
Turning to `N#Cc1ccccc1Cn1c(=O)[nH]c2ncc(-c3ccc(Cl)cc3)cc21` [Example 482, 2-[[6-(4-Chlorophenyl)-2-oxo-3H-imidazo[4,5-b]pyridin-1-yl]methyl]benzonitrile], the IC50 under setting [2] was 1.41 µM.
Take `O=c1[nH]c2ncc(-c3cccc(C(F)(F)F)c3)cc2n1Cc1cccnc1` [Example 230, 1-(3-Pyridylmethyl)-6-[3-(trifluoromethyl)phenyl]-3H-imidazo[4,5-b]pyridin-2-one]: under setting [3], the IC50 stood at 0.017 µM.
Regarding `COc1ccc(-c2cnc3[nH]c(=O)n(CC4CC4)c3c2)cc1C` [Example 468, 1-(Cyclopropylmethyl)-6-(4-methoxy-3-methyl-phenyl)-3H-imidazo[4,5-b]pyridin-2-one], the IC50 under setting [2] is 4.17 µM.
Turning to `CC1(NC(=O)Cn2c(=O)[nH]c3ncc(-c4cccc(C(F)(F)F)c4)cc32)CC(F)(F)C1` [Example 209, N-(3,3-Difluoro-1-methyl-cyclobutyl)-2-[2-oxo-6-[3-(trifluoromethyl)phenyl]-3H-imidazo[4,5-b]pyridin-1-yl]acetamide], the IC50 under setting [3] is 0.443 µM.
For `CNC(=O)Cn1c(=O)[nH]c2ncc(-c3cc(C)cc(C)c3)cc21` [Example 438, 2-[6-(3,5-Dimethylphenyl)-2-oxo-3H-imidazo[4,5-b]pyridin-1-yl]-N-methyl-acetamide], under setting [2], the IC50 stood at 0.394 µM.
`Cn1c(=O)n(Cc2cncc(F)c2)c2cc(-c3cccc(Cl)c3)cnc21` [Example 348, 6-(3-Chlorophenyl)-1-[(5-fluoro-3-pyridyl)methyl]-3-methyl-imidazo[4,5-b]pyridin-2-one]: the IC50 under setting [1] came out at 0.213 µM.
As to `Cc1noc(Cn2c(=O)n(C)c3ncc(-c4ccc(C(F)F)s4)cc32)n1` [Example 563, 6-[5-(Difluoromethyl)-2-thienyl]-3-methyl-1-[(3-methyl-1,2,4-oxadiazol-5-yl)methyl]imidazo[4,5-b]pyridin-2-one], the 50% inhibitory concentration (IC50) under setting [1] came to 0.316 µM.
`CN(C)C(=O)Cn1c(=O)n(C)c2ncc(-c3cccc(C(F)F)c3)cc21` [Example 426, 2-[6-[3-(Difluoromethyl)phenyl]-3-methyl-2-oxo-imidazo[4,5-b]pyridin-1-yl]-N,N-dimethyl-acetamide]: the IC50 under setting [1] came out at 0.019 µM.
Turning to `O=c1[nH]c2ncc(-c3cccc(OC(F)(F)F)c3)cc2n1Cc1cncc(F)c1` [Example 307, 1-[(5-Fluoro-3-pyridyl)methyl]-6-[3-(trifluoromethoxy)phenyl]-3H-imidazo[4,5-b]pyridin-2-one], the IC50 under setting [3] amounted to 0.088 µM.
Consider `CCOc1ccccc1-c1cnc2[nH]c(=O)n(Cc3cccc(F)c3)c2c1` [Example 497, 6-(2-Ethoxyphenyl)-1-[(3-fluorophenyl)methyl]-3H-imidazo[4,5-b]pyridin-2-one], for which the IC50 under setting [2] is 1.95 µM.
As for `Cn1c(=O)n(CC(=O)N2CCC2)c2cc(-c3ccsc3C(F)(F)F)cnc21` [Example 95, 1-[2-(Azetidin-1-yl)-2-oxo-ethyl]-3-methyl-6-[2-(trifluoromethyl)-3-thienyl]imidazo[4,5-b]pyridin-2-one], the IC50 under setting [3] worked out at 0.096 µM.
Regarding `COc1cc(F)ccc1-c1cnc2[nH]c(=O)n(CC(=O)c3cccs3)c2c1` [Example 462, 6-(4-Fluoro-2-methoxy-phenyl)-1-[2-oxo-2-(2-thienyl)ethyl]-3H-imidazo[4,5-b]pyridin-2-one], the IC50 under setting [1] was 0.255 µM.
On to `O=c1[nH]c2ncc(-c3cccc(C(F)(F)F)c3)cc2n1Cc1cncc(C(F)(F)F)c1` [Example 259, 6-[3-(Trifluoromethyl)phenyl]-1-[[5-(trifluoromethyl)-3-pyridyl]methyl]-3H-imidazo[4,5-b]pyridin-2-one], for which the IC50 under setting [3] came out at 1.03 µM.
Regarding `Cn1c(=O)n(Cc2cccnc2)c2cc(-c3cc(C(F)F)ccc3F)cnc21` [Example 386, 6-(5-(Difluoromethyl)-2-fluorophenyl)-3-methyl-1-(pyridin-3-ylmethyl)-1,3-dihydro-2H-imidazo[4,5-b]pyridin-2-one], under setting [1], the IC50 stood at 1.11 µM.
Regarding `O=c1[nH]c2ncc(-c3cc(F)cc(F)c3)cc2n1CC1CC1` [Example 470, 1-(Cyclopropylmethyl)-6-(3,5-difluorophenyl)-3H-imidazo[4,5-b]pyridin-2-one], under setting [2], the IC50 is 0.509 µM.
As to `CN(C)C(=O)Cn1c(=O)n(C)c2ncc(-c3ccc(F)c(F)c3)cc21` [Example 421, 2-[6-(3,4-Difluorophenyl)-3-methyl-2-oxo-imidazo[4,5-b]pyridin-1-yl]-N,N-dimethyl-acetamide], the half-maximal inhibitory concentration (IC50) under setting [1] amounted to 0.053 µM.
